Results taken from ChEMBL document CHEMBL3507680, “University of Dundee, Gates Library screen for HepG2 cell viability”.

Experiment: Human HepG2 cell viability assay in 384 well format
Type: toxicity, cell-based
Set-up: dose 125 nL, time 70.5 hour; concentration not given beside the values
Conditions: HepG2 cells, read-out: Inhibition

| SMILES | cytotoxicity at 70.5 h [%] |
| --- | --- |
| CCOc1no[n+]([O-])c1-c1ccccc1 | -3.07 |
| CS(=O)(=O)C1=C(O)C(=O)N(c2ccccc2)C1c1ccccc1 (configuration not stated) | -4.58 |
| Cc1c(Cl)cccc1NC(=O)c1nc[nH]n1 | 19.3 |
| Cc1cccc(NC(=O)c2cncc(C3CCNCC3)n2)n1 | -5.87 |
| NC(=O)c1cn[nH]c1C1CCCN1C(=O)c1ccccc1 (configuration not stated) | -5.37 |
| c1nnc(Nc2cncc(C3CCCN3CC3CC3)n2)s1 (configuration not stated) | 0.394 |
| Cc1nn(C)cc1NC(=O)CN1CCC(Oc2cnccn2)CC1 | -4.13 |
| Cc1n[nH]c(C)c1S(=O)(=O)N1CCC(Oc2cnccn2)CC1 | -2.37 |
| Cc1ccccc1OC1CCN(S(=O)(=O)c2c(C)n[nH]c2C)CC1 | -6.57 |
| CC(=O)N1CCC(C)(c2nc(C)no2)CC1 | -5 |
| CN1CCC(c2[nH]ncc2S(C)(=O)=O)CC1 | -7.29 |
| Cc1nc2c(c(Nc3ccccn3)n1)CN(S(C)(=O)=O)CC2 | 23.4 |
| O=C(NCC1(O)COCCN(Cc2ccc(O)cc2)C1)c1cnccn1 (configuration not stated) | -9.12 |
| Cc1cc(C)nc(N2CC=C[C@H]2C(=O)NCc2ccc3c(c2)OCO3)n1 | -3.34 |
| c1cc(CCNc2ncc(-c3cnccn3)c(C3CC3)n2)ccn1 | -5.03 |
| Cc1c(C2=NS(=O)(=O)N(C)C(C(=O)Nc3ccc(Br)cc3)=C2)cnn1C | 22.2 |
| Cc1nn(C)cc1C1=NS(=O)(=O)N(C)C(C(=O)Nc2ccc(Br)cc2)=C1 | 0.0552 |
| Cc1cc(-c2ccc(=O)n(C3CCN(C(=O)C4CCC4)CC3)n2)c(C)o1 | 1.9 |
| CCCS(=O)(=O)N1CCC(n2nc(-c3cc(C)oc3C)ccc2=O)CC1 | 8.97 |
| O=C(O)[C@@H]1CCN(C(=O)c2cscn2)[C@@H]1c1ccc(F)cc1 | -2.87 |
| Cc1nccn1-c1ccc(CN2CC3C[C@@H](O)CN3C[C@@H]2C)cc1 (some centres not stated) | -7.07 |
| CNC(=O)c1cn[nH]c1C1CCCN1C(=O)c1ccccn1 (configuration not stated) | -1.79 |
| CN1CCOC(c2cncc(CCC(=O)N(C)C)n2)C1 (configuration not stated) | -2.29 |
| CNc1ncc(CN2CCCC2c2[nH]ncc2C(=O)N(C)C)cn1 (configuration not stated) | -3.21 |

| SMILES | cytotoxicity at 70.5 h [%] |
| --- | --- |
| CC(C)c1ncc(CN2CCC(c3n[nH]cc3C(=O)N(C)C)C2)cn1 (configuration not stated) | -2.3 |
| Cc1cc(C)nc(C2CCCN2C(=O)c2cnccn2)n1 (configuration not stated) | -2.97 |
| CN1CCOC(c2cncc(CCC(N)=O)n2)C1 (configuration not stated) | -3.04 |
| Cc1cc(-c2cccnc2)nc(C2CCCN2S(C)(=O)=O)n1 (configuration not stated) | -3.42 |
| CCCC(=O)N1CCC(c2cc[nH]n2)C1 (configuration not stated) | 0.0603 |
| CC(C)c1nccn1-c1nccnc1C1CCCN1Cc1cccnc1 (configuration not stated) | -1.81 |
| CCn1ncc(S(=O)(=O)N2CCCC3(CC=CNC3=O)C2)c1C (configuration not stated) | -1.6 |
| Cc1ccc(C)c2c(C)c(C(=O)NCC[S+](C)[O-])[nH]c12 (configuration not stated) | -4.15 |
| C[C@@H]1CN2C[C@H](O)CC2CN1Cc1ccc2nccnc2c1 (some centres not stated) | 35.6 |
| COc1ccccc1C1(O)CCCN(C(=O)c2ccnn2C(C)C)C1 (configuration not stated) | -1.5 |
| CCN1CCCC1CNCc1cc2cc3c(cc2[nH]c1=O)OCCO3 (configuration not stated) | -1.38 |
| Cc1nc(O)c2c(n1)CCN(Cc1cc(C)sc1C)CC2 | 23.6 |
| CC(C)c1nc(O)c2nnn(C[C@@H]3CCCN(Cc4cccs4)C3)c2n1 | 1.47 |
| CCN1CCCC1CNCc1cc2cc(C)c(C)cc2[nH]c1=O (configuration not stated) | -2.24 |
| CCN1CCCC1CNCc1cc2cc(OC)c(OC)cc2[nH]c1=O (configuration not stated) | -1.47 |
| C[C@H]1CN2C[C@H](O)CC2CN1Cc1ccncc1 (some centres not stated) | -1.34 |
| COc1cccc(OC)c1CNC(Cc1ccsc1)c1ccc(C)cn1 (configuration not stated) | 4.63 |
| NC1(CN2CCCCC2)CCCCC1 | -3.49 |
| Cc1cc(N(C)C)nc(C2(C)CCNCC2)n1 | 46.3 |
| Cc1nc(C2CCCN(S(C)(=O)=O)C2)sc1Br (configuration not stated) | -0.507 |
| CC(=O)NCC(=O)N1CCOC(c2cccc(N)n2)C1 (configuration not stated) | 15.3 |
| CN(C)C(=O)C1CCCN(C(=O)c2ccccc2-n2cc(CN)cn2)C1 (configuration not stated) | 48.5 |
| NCC(=O)N1CCCC(O)(CN2CCN(c3ccccc3)CC2)CC1 (configuration not stated) | 4.71 |
| Nc1nccnc1CC1CCCN(Cc2cccc3[nH]ccc23)C1 (configuration not stated) | 0.122 |

| SMILES | cytotoxicity at 70.5 h [%] |
| --- | --- |
| O=C(N[C@@H]1CC[C@@H](N2CCCC2)[C@@H]1O)c1cc2ccccc2[nH]1 | -5.76 |
| CC(=O)N1CCCC1c1nc(N(C)C)ncc1-c1ccccc1 (configuration not stated) | 23.2 |
| CNc1ccc(CC2CCCN(Cc3c[nH]cn3)C2)nn1 (configuration not stated) | -3.24 |
| Cc1cncnc1C1CCN(CC2CC2)CC1 | 19.8 |
| Cc1cc(N2CCC(Cc3cnccn3)C2)ncn1 (configuration not stated) | -7.8 |
| CC(=O)N1CCOC(c2cncc(CCC(N)=O)n2)C1 (configuration not stated) | 7.13 |
| COCCC(=O)N1CCC(c2ncncc2-c2ccnc(N)c2)C1 (configuration not stated) | -3.28 |
| Cc1ccc(S(=O)(=O)N2CCC(c3n[nH]cc3C(=O)N(C)C)CC2)cc1 | 8.18 |
| CN1CCC(c2nccnc2Nc2cnccn2)CC1 | -0.843 |
| Cc1noc(C)c1CCC(=O)N1CCOCC1CCc1cnccn1 (configuration not stated) | 14 |
| Cc1cc(CN2CCc3nc(N4CCOCC4)nc(O)c3CC2)c(C)s1 | -0.651 |
| Cc1cc(C)nc(N2CCC(C(=O)Nc3ccc(C(C)C)cc3)CC2)n1 | -2.09 |
| Cc1cc(N(C)C)nc(C2(C)CCCNC2)n1 (configuration not stated) | 18.9 |
| Nc1nccnc1CC1CCCN(Cc2ccnc3ccccc23)C1 (configuration not stated) | 27.7 |
| COCC(=O)N1CCC(O)(CN2CCN(c3ccccc3)CC2)C1 (configuration not stated) | -1.6 |
| c1c[nH]c(CN2CCCC(Cc3ccc(NC4CCCC4)nn3)C2)n1 (configuration not stated) | 7.73 |
| CC(C)c1nccn1-c1cncc(C2CCCN2Cc2cccnc2)n1 (configuration not stated) | -1.69 |
| Cc1ccc(CN2CCc3nc(C(C)C)nc(O)c3CC2)s1 | -4.74 |
| CN(C)C(=O)c1c[nH]nc1C1CCN(S(=O)(=O)c2ccccc2)CC1 | -1.91 |
| NC(=O)c1cn[nH]c1C1CCCN1C(=O)c1cnccn1 (configuration not stated) | -10.1 |
| Cc1c(Br)cccc1NC(=O)N(C)CCO | -14.7 |
| CCS(=O)(=O)CCCN1CCSCC1c1ccc(Cl)cc1 (configuration not stated) | -13.2 |
| O=C(COc1cc(Cl)cc(Cl)c1)NCc1nncn1C1CC1 | -8.34 |
| COc1ccc(OC)c(S(=O)(=O)NC(=O)C(C)OC)c1 (configuration not stated) | -13.3 |

| SMILES | cytotoxicity at 70.5 h [%] |
| --- | --- |
| Cc1ccccc1S(=O)(=O)Cc1nsc(N(C)C)n1 | 0.131 |
| Cc1ccc(S(=O)(=O)Cc2nsc(N(C)C)n2)c(C)c1 | -6.24 |
| Cc1ccnc2c1NC(=O)CN2C(=O)CCc1ccccc1 | -13.4 |
| Cc1ccnc2c1NC(=O)CN2C(=O)CCc1cccs1 | -5.29 |
| COc1ccc(S(=O)(=O)NC(=O)C(C)OC)c(OC)c1 (configuration not stated) | -2.74 |
| Cc1cc(CNC(=O)c2cc(NC(=O)C(C)C)ccc2Cl)no1 | 13.5 |
| Cn1cccc1CNCC1CCCn2cc(C(C)(C)C)nc21 (configuration not stated) | 5.68 |
| CCN(C)S(=O)(=O)N1CCC(C(O)c2ccc(F)cc2)CC1 (configuration not stated) | -2.3 |
| CC(CO)NS(=O)(=O)c1cccc(C(C)C)c1 (configuration not stated) | -9 |
| CCN(CC(=O)NC(C)(C)C)Cc1cccc2c1OCCO2 | -11.6 |
| CC(C)C(C(=O)N(C)C)c1cccc(Cl)c1 (configuration not stated) | -11 |
| CCCc1noc(C(C)N2CC(n3cccn3)C2)n1 (configuration not stated) | 6.9 |
| Cc1ccn(Cc2nc(C(C)OCC(C)C)no2)c(=O)c1 (configuration not stated) | 3.64 |
| Cc1ccnc(NC(=O)c2c(C)oc(C)c2C)c1 | 9.9 |
| CC(C)(NC(=O)NCc1cccc(Br)c1)C(=O)O | -9.51 |
| COc1ccc(OCCN(C)S(=O)(=O)N2CCOCC2)cc1 | -6.12 |
| CC(C(=O)N1CCOCC1)S(=O)(=O)Cc1nc(C(C)(C)C)no1 (configuration not stated) | -9.65 |
| Cc1ccc(OCCN(C)S(=O)(=O)N2CCOCC2)cc1 | -0.648 |
| O=S(=O)(CCCn1cncn1)Cc1cccc(F)c1 | -9.13 |
| CC(C(=O)N1CCCC1)S(=O)(=O)Cc1nc(C(C)(C)C)no1 (configuration not stated) | -8.31 |
| Cc1cc(N(C)C)nc(N(C)Cc2csc(C)n2)n1 | -7.95 |
| Cc1cnn(CC2CN(c3ncnc4c3CCC4)CCO2)c1 (configuration not stated) | -1.52 |
| CC(NC(N)=O)C(=O)N(C)Cc1cccc(C(F)(F)F)c1 (configuration not stated) | 10.7 |
| O=C(COCC1CC1)Nc1cc(S(=O)(=O)NC2CC2)ccc1F | -2.2 |

| SMILES | cytotoxicity at 70.5 h [%] |
| --- | --- |
| CSc1ccsc1C(=O)NCCNC(=O)C1CC1 | -6.91 |
| CCC(CC)c1cc(C(=O)N2CCN(C(C#N)C(C)C)CC2)on1 (configuration not stated) | -6.08 |
| CCC(C)(C)C1CCCN1C(=O)c1coc(S(=O)(=O)NC)c1 (configuration not stated) | 6.9 |
| CN1CCOC(C(=O)Nc2nc(-c3ccc(Cl)cc3)n[nH]2)C1 (configuration not stated) | 4.4 |
| CC(Cc1ccco1)NS(=O)(=O)N1CCCCC1 (configuration not stated) | -6.18 |
| CC1CCN(S(=O)(=O)NC(C)Cc2ccco2)CC1 (configuration not stated) | -4.62 |
| CC(C)Cc1nc(CS(=O)(=O)C(C)C(=O)N2CCOCC2)no1 (configuration not stated) | -7.75 |
| CS(=O)(=O)c1ccc(NC(=O)NC2(c3ccccc3)CCC2)cc1 | -8.88 |
| CCNC(=O)CNC(=O)c1nc(C2CC2)n(-c2ccccc2Cl)n1 | -2.36 |
| CS(=O)(=O)NC(c1ccccc1)c1ccc2c(c1)CCCO2 (configuration not stated) | -6.34 |
| COCCN(CCOC)c1ncc(C#N)cc1Cl | -15.8 |
| Cc1ccc(C2CSCCN2C(=O)NCc2cccnc2)cc1 (configuration not stated) | -10.1 |
| CC(O)CCN(C)C(=O)Nc1cccc(F)c1 (configuration not stated) | -8.99 |
| COc1ccc(-n2cc(CNC(=O)c3cc[nH]n3)nn2)cc1 | -3.5 |
| CC1(C)Cc2cc(-c3cncn3CCNC3CCS(=O)(=O)C3)ccc2O1 (configuration not stated) | -0.723 |
| Cc1cc(C)nc(N2CC=C[C@@H]2C(=O)NCc2ccc3c(c2)OCO3)n1 | -9.16 |
| C[C@H]1CN2C[C@H](O)CC2CN1Cc1ccc2nccnc2c1 (some centres not stated) | -1.32 |
| CN(C)CCNC(=O)c1sc2ccccc2c1C1CCC(CN)CC1 (configuration not stated) | 8.65 |
| O=C(Nc1ccccn1)c1cncc(C2CCNCC2)n1 | -6.06 |
| Cn1ccnc1CN(Cc1ccccn1)Cc1ccccc1Cl | 1.27 |
| Cc1ncc(CN(Cc2ccccn2)Cc2ccccc2Cl)n1C | 11.6 |
